Data on 23 compounds can be found in the Deep4Chem optical property database.

SMILES strings stand for the structures. Where “and” joins values, the source holds several entries; their conditions need not be identical. Equal entries are not always repeated.

The data set in a line: solvent given as SMILES.

Regarding `c1ccc2c(c1)c1ccccc1c1[nH]c(-c3ccc(-c4nc5c6ccccc6c6ccccc6c5[nH]4)cc3)nc21`, the absorption maximum came out at 411 nm (in C1CCOC1); 412 nm (in CC#N); 410 nm (in CCO); 410 nm (in CS(C)=O); 413 nm (in ClCCl).

Turning to `CCCCOC(=O)c1cc(Oc2ccc(C(C)(C)C)cc2)c2c3c(Cl)cc4c5c(cc(Cl)c(c6c(Oc7ccc(C(C)(C)C)cc7)cc(C(=O)OCCCC)c1c26)c53)C(=O)N(c1c(C(C)C)cccc1C(C)C)C4=O`, the absorption maximum (in Cc1ccccc1) was 529 nm.

Under “in O”, `CC[N+]1(CC)CN2C(=N1)C(C(=O)O)=Cc1cc(F)ccc12` had an absorption maximum of 375 nm.

For the compound `CCN(CC)c1ccc2c(-c3ccccc3C(=O)O)c3c([o+]c2c1)/C(=C/Nc1ccccc1)CCC3`, the absorption maximum stood at 595 nm (in CCO), 608 nm (in ClC(Cl)Cl) and 607 nm (in ClCCl).

As for `C(=C\N1CCCC1)/c1nc2ccccc2nc1-c1ccccc1`, under “in CC#N”, the absorption maximum came to 438 nm.

Turning to `CCCCC[n+]1ccc(/C=C/c2ccc(N(C)C)c3ccccc23)c2ccccc21`, the absorption maximum by setting is: (in C1CCOC1) 502 nm; (in C1COCCO1) 495 nm; (in CC#N) 496 nm; (in CC(C)=O) 503 nm; (in CCCCO) 522 nm; (in CCO) 508 nm. For the same compound, the absorption maximum (in CN(C)C=O) is 501 nm; the absorption maximum (in CO) was 503 nm; the absorption maximum (in CS(C)=O) is 506 nm; the absorption maximum (in ClC(Cl)Cl) is reported as 522 nm; the absorption maximum (in O) was 452 nm; the absorption maximum (in c1ccccc1) turned out to be 494 nm. The absorption maximum (in c1ccncc1) was 526 nm.

`O=C(c1cc(F)c(N2CCCCC2)cc1F)c1cc(F)c(N2CCCCC2)cc1F`: the absorption maximum (in CCO) was found to be 354 nm.

Take `FC(F)(F)c1ccc(/C=C/c2ccc(-c3nnc(-c4ccc(-c5cc6ccccc6s5)cc4)o3)cc2)cc1`: the absorption maximum runs as follows: (in CC#N) 333 nm; (in CC(C)=O) 342 nm; (in CCCCCCCC) 337 nm; (in CCCCCCCCCCO) 340 nm; (in CCCCCCCCO) 342 nm; (in CCCCCO) 341 nm. Also, the absorption maximum is, setting by setting: (in CCCO) 340 nm; (in CN(C)C=O) 345 nm; (in CO) 337 nm; (in CS(C)=O) 342 nm.

Where the note is “in C1CCOC1”, `Oc1ccc(C2=N[N+]3=Cc4c(ccc5ccccc45)O[B-]3(c3ccc([B-]45OC(c6ccc(O)cc6)=N[N+]4=Cc4c(ccc6ccccc46)O5)cc3)O2)cc1` (stereo not drawn) returned an absorption maximum of 424 nm.

Turning to `O=P1(c2ccccc2)C(c2ccc(N(c3ccccc3)c3ccccc3)cc2)=Cc2cc3ccccc3cc21` (stereo not drawn), the absorption maximum was determined as 407 nm (in C1CCOC1); 404 nm (in CC#N); 407 nm (in CN(C)C=O); 412 nm (in Cc1ccccc1); 417 nm (in ClC(Cl)Cl); 414 nm (in ClCCl).

With `O=[N+]([O-])c1ccc(C#Cc2ccccc2C#Cc2ccc([N+](=O)[O-])cc2)cc1`, the absorption maximum (in CC#N) was 350 nm.

Regarding `COc1ccc(N(c2ccc(OC)cc2)c2ccc(-c3ccc4c(c3)C(=O)c3ccccc3C4=O)cc2)cc1`, the absorption maximum by setting is: (in C1CCOC1) 477 nm; (in CCCCCC) 468 nm; (in CCOC(C)=O) 472 nm; (in CCOCC) 472 nm; (in Cc1ccccc1) 481 nm; (in ClC(Cl)(Cl)Cl) 483 nm. Also, the absorption maximum (in ClCCl) was 485 nm.

Turning to `COc1ccc(-c2cc3c(ccc4sc(/C=C/c5cccs5)cc43)s2)cc1`, the absorption maximum (in ClCCl) came to 376 nm.

For the compound `Nc1cccc2cccc(N)c12`, the absorption maximum by setting is: (in CC#N) 349 nm; (in CO) 334 nm; (in CS(C)=O) 354 nm; (in Cc1ccccc1) 334 nm.

Compound `c1ccc(-n2c3ccccc3c3cc(-c4ccc5nc(-c6ccc(-n7c8ccccc8c8ccccc87)cc6)nn5c4)ccc32)cc1` registered an absorption maximum (in C1CCOC1) of 340 nm.

For `CCCCN1C(=O)C2=C(c3ccc(-c4ccccc4)cc3)NC(=O)C2=C1c1ccc(-c2ccccc2)cc1`, the absorption maximum (in ClCCl) is given as 485 nm.

Turning to `CCc1ccc(/C=N/c2cc(C(C)C)c(O)cc2C)cc1`, the absorption maximum was 344 nm (in C1CCCCC1); 348 nm (in C1CCOC1); 347 nm (in C1COCCO1); 340 nm (in CC#N); 350 nm (in CC(C)(C)O); 347 nm (in CC(C)O). Also, the absorption maximum (in CCCCCC) was determined as 342 nm; the absorption maximum (in CCCCO) was found to be 349 nm; the absorption maximum (in CCO) was found to be 346 nm; the absorption maximum (in CCOC(C)=O) was 346 nm; the absorption maximum (in CN(C)C=O) amounted to 351 nm; the absorption maximum (in CO) was determined as 346 nm. Also, the absorption maximum came to 352 nm (in CS(C)=O); 343 nm (in ClC(Cl)Cl); 341 nm (in ClCCl); 354 nm (in O); 346 nm (in OCCO).

`CN1/C(=C/C=C/C2=[N+](C)c3ccccc3C2(C)C)Sc2ccccc21` displayed an absorption maximum (in CS(C)=O) of 549 nm.

For the compound `F[B-]1(F)N2C(=Nc3cccc4cccc2c34)c2cccc[n+]21`, the absorption maximum was 350 nm (in CC#N), 348 nm (in CO), 351 nm (in CS(C)=O) and 354 nm (in Cc1ccccc1).

`O=c1c2ccccc2nc2ccc(-c3ccc(N(c4ccccc4)c4ccccc4)cc3)cn12`: the absorption maximum (in ClCCl) was found to be 355 nm.

`CCC1(CC)c2cc(C=C(C#N)C#N)ccc2-c2ccc(N(C)C)cc21`: the absorption maximum runs as follows: (in C1CCCCC1) 480 nm; (in CC#N) 474 nm; (in CCO) 478 nm; (in CCOCC) 470 nm; (in CS(C)=O) 490 nm; (in ClCCl) 490 nm. Besides, the absorption maximum (in c1ccccc1) is given as 480 nm.

Turning to `CCCCCCCCCCCCNc1cccc2[n+]1[B-](F)(F)n1c(c3cccc4cccc1c43)=N2`, the absorption maximum (in C1CCOC1) amounted to 498 nm; the absorption maximum (in CC#N) was found to be 493 nm; the absorption maximum (in CCCCCC) was 496 nm; the absorption maximum (in Cc1ccccc1) is listed as 500 nm; the absorption maximum (in ClCCl) is 497 nm and 467 nm.

Regarding `CC(C)(C)c1ccc2c(c1)c1cc(C(C)(C)C)ccc1n2-c1ccc(C#Cc2ccccc2)cc1`, the absorption maximum is given as 329 nm (in CC#N); 329 nm (in CCCCC); 329 nm (in CO); 335 nm (in Cc1ccccc1); 329 nm (in ClC(Cl)Cl); 334 nm (in ClCCl).
